Experimental data taken from patent US9567345B2, “Pharmaceutically active pyrazolo-triazine derivatives” (LEAD DISCOVERY CENTER GMBH, priority 2012, dated 2017).
Like-named read-outs stand apart in the source and are kept apart here.

How the values were obtained:
Format in all cases: biochemical
[1] = molecular target: CDK9/Cyclin T1 (Homo sapiens, UniProt P50750); experiment: CDK9 Enzymatic Activity Assay (Lance Kinase Activity Assay, FRET); details: for IC50: Table 5B, class symbols per IC50 [nM] ranges of b581, read-out: CDK9: Selectivity of CDK7 inhibition over CDK9 inhibition
CDK9/Cyclin T1, sequence (P50750 whole entry): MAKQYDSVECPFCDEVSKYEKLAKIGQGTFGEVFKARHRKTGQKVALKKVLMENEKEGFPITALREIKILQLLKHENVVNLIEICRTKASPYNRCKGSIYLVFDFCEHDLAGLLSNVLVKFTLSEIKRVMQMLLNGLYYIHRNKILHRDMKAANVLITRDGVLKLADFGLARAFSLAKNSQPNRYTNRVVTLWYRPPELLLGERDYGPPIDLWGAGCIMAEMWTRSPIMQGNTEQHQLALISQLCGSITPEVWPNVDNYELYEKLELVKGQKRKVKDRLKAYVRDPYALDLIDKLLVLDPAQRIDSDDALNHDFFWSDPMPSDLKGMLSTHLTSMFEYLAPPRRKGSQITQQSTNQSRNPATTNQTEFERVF
CDK9/Cyclin T1, sequence (O60563 whole entry partner): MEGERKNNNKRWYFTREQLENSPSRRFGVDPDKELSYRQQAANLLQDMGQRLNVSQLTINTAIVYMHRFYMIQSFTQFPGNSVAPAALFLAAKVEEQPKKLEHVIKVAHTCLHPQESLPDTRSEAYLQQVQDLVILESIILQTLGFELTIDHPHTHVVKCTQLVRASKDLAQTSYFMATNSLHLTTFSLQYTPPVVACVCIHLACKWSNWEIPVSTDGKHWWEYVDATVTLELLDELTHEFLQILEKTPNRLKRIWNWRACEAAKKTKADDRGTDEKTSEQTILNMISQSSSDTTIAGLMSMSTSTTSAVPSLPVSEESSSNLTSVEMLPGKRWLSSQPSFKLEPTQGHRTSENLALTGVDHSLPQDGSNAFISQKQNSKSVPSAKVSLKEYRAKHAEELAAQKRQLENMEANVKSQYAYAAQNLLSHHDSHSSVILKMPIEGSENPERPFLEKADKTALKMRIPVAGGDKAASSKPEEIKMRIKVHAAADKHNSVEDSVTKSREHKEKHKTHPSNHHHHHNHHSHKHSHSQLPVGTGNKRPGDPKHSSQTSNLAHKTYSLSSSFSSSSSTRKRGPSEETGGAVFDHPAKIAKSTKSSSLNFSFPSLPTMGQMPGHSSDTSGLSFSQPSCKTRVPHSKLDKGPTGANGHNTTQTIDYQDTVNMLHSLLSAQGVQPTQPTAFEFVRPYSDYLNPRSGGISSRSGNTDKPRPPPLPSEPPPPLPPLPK
Method: (§1) This protocol describes how the Lance Kinase Activity Assay was performed to determine IC50 values of compounds of general formula (I) against CDK/Cyclin complexes. The principle behind this enzymatic assay is based upon the phosphorylation of the Ulight-Peptide Substrat. It is detected by using a specific EU-labeled anti-phospho peptide antibody.
(§2) Binding of an inhibitor to the kinase prevents phosphorylation of the Ulight-MBP Substrat, resulting in a loss of FRET.
CDK9 Enzymatic Activity Assay
(§3) The compounds of general formula (I) exemplary summarized in Table 1 were diluted from a 10 mM DMSO stock solution 1:10 in a total volume of 15 μl DMSO. This compound predilution was then serial diluted 1:3 over 8 steps in DMSO and briefly spun down. Each compound solution was now diluted 1:20 in Enzymatic Buffer (HEPES: 50 mM, pH: 7.5; MgCl2: 10 mM; EGTA: 1 mM; DTT: 2 mM; Tween-20: 0.01%), mixed thoroughly and spun down.
(§4) For positive controls, 2 μl of DMSO working solution were mixed with 6 μl CDK9/cyclin T1/substrate working solution and 2 μl ATP working solution. Positive and negative controls were calculated from at least 8 different wells. The 384 well plates were mixed in a Teleshaker plate mixer (Beckman Coulter, Brea, Calif., USA) at 2000 rpm for 40 sec, and incubated for 1 h at room temperature before addition of 10 μl LANCE Detection Buffer (1×; EDTA: […]; Eu-Anti-P-MBP: 4 nM) per well. Plates were mixed in a Teleshaker plate mixer (Beckman Coulter, Brea, Calif., USA) at 2000 rpm for 40 sec, followed by incubation with Detection Buffer for 1 h, and reading. […] IC50 values were determined from the sigmoidal dose response curves with the software Quattro Workflow (Quattro GmbH, Munich, Germany).

[2] = molecular target: T1, CDK2/CycA (Homo sapiens, UniProt P24941); experiment: CDK2 Enzymatic Activity Assay (Lance Kinase Activity Assay, FRET); details: for IC50: Table 5B, class symbols per IC50 [nM] ranges of b581, read-out: CDK2: Selectivity of CDK7 inhibition over CDK2 inhibition
T1 construct: purchased Proqinase
Method: as §1, §2
CDK2 Enzymatic Activity Assay
as §3
as §4, with “CDK2/CycA/substrate” for “CDK9/cyclin T1/substrate”, “(EDTA:” for “(1×; EDTA:”

[3] = molecular target: CDK7/CycH/Mat1 (Homo sapiens, UniProt P50613); experiment: CDK7 Enzymatic Activity Assay (Lance Kinase Activity Assay, FRET)
CDK7/CycH/Mat1, sequence (P50613 whole entry): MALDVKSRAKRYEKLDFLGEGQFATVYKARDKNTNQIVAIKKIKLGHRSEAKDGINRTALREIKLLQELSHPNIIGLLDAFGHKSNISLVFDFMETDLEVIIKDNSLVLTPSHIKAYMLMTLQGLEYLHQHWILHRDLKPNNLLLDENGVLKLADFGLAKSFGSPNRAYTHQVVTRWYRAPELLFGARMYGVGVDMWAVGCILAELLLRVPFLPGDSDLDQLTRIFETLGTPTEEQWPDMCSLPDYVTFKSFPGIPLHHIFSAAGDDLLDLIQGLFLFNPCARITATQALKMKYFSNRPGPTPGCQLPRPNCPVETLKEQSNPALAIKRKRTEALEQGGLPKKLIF
Method: as §1, §2
CDK7 Enzymatic Activity Assay
as §3
as §4, with “CDK7/CycH/Mat1/substrate” for “CDK9/cyclin T1/substrate”

[4] = CDK7/CycH/Mat1, 25 μM ATP final, class ranges, read-out: CDK7: IC50 [nM] for CDK7 inhibition

| SMILES | IC50 [1] | IC50 [2] | IC50 [3, 4] | other results |
| --- | --- | --- | --- | --- |
| CC(C)c1cnn2c(NCc3ccccc3-n3cccn3)nc(C(=O)NCC3CCNCC3)nc12 [(XII-1), 4-((2-(1H-pyrazol-1-yl)benzyl)amino)-8-isopropyl-N-(piperidin-4-ylmethyl)pyrazolo[1,5-a][1,3,5]triazine-2-carboxamide] | > 2500 nM | > 2500 nM | < 5 nM | – |
| CC(C)c1cnn2c(NCc3ccccc3-n3cccn3)nc(CNCCN3CCOCC3)nc12 [(XXX-5), N-(2-(1H-pyrazol-1-yl)benzyl)-8-isopropyl-2-(((2-morpholinoethyl)amino)methyl)pyrazolo[1,5-a][1,3,5]triazin-4-amine] | > 2500 nM | > 2500 nM | > 25 nM | – |
| CC(C)c1cnn2c(NCc3ccccc3-c3cccs3)nc(OC3CCNCC3)nc12 [(VII-14), 8-isopropyl-2-(piperidin-4-yloxy)-N-(2-(thiophen-2-yl)benzyl)pyrazolo[1,5-a][1,3,5]triazin-4-amine] | 500 to 2500 nM | 50 to 500 nM | < 5 nM | – |
| CC(C)c1cnn2c(NCc3ccccc3-n3cccn3)nc(C(=O)NCC3CCNC3)nc12 (centres unmarked) [(XII-3), 4-((2-(1H-pyrazol-1-yl)benzyl)amino)-8-isopropyl-N-(pyrrolidin-3-ylmethyl)pyrazolo[1,5-a][1,3,5]triazine-2-carboxamide] | > 2500 nM | > 2500 nM | < 5 nM | – |
| CC(C)c1cnn2c(NCc3ccccc3-n3cccn3)nc(N3CCC(N(C)C)CC3)nc12 [(VIII-24), N-(2-(1H-pyrazol-1-yl)benzyl)-2-(4-(dimethylamino)piperidin-1-yl)-8-isopropylpyrazolo[1,5-a][1,3,5]triazin-4-amine] | 500 to 2500 nM | 50 to 500 nM | < 5 nM | – |
| CC(C)c1cnn2c(NCc3ccccc3OS(C)(=O)=O)nc(O[C@@H]3CCCNC3)nc12 [(VII-147), (R)-2-(((8-isopropyl-2-(piperidin-3-yloxy)pyrazolo[1,5-a][1,3,5]triazin-4-yl)amino)methyl)phenyl methanesulfonate] | > 2500 nM | 50 to 500 nM | 5 to 10 nM | – |
| CC(C)c1cnn2c(NCc3ccccc3-n3cccn3)nc(OC3C[C@H]4CNC[C@@H]34)nc12 (stereo partly drawn) [(VII-123), N-(2-(1H-pyrazol-1-yl)benzyl)-2-((1R,5S)-3-azabicyclo[3.2.0]heptan-6-yloxy)-8-isopropylpyrazolo[1,5-a][1,3,5]triazin-4-amine] | > 2500 nM | 50 to 500 nM | < 5 nM | – |
| CC(C)c1cnn2c(NCc3ccccc3C3CC3)nc(O[C@@H]3CCCNC3)nc12 (stereo in doubt) [(VII-143), N-(2-cyclopropylbenzyl)-8-isopropyl-2-(piperidin-3-yloxy)pyrazolo[1,5-a][1,3,5]triazin-4-amine] | 500 to 2500 nM | 500 to 2500 nM | 10 to 25 nM | – |
| CN1CC[C@H](c2c(O)cc(O)c3c(=O)cc(-c4ccccc4Cl)oc23)[C@H](O)C1 [Flavopiridol, reference compound] | – | – | – | multiplicity of the CDK9 activity in terms of the CDK7 activity ([1]; selectivity CDK9 vs CDK7, enzymatic IC50 values): even lower than the CDK 7 activity; multiplicity of the CDK2 activity in terms of the CDK7 activity ([2]; selectivity CDK2 vs CDK7, enzymatic IC50 values): even lower than the CDK 7 activity |
| CC(C)c1cnn2c(NCc3ccccc3-n3cccn3)nc(C(=O)NCC3CCCNC3)nc12 (centres unmarked) [(XII-4), 4-((2-(1H-pyrazol-1-yl)benzyl)amino)-8-isopropyl-N-(piperidin-3-ylmethyl)pyrazolo[1,5-a][1,3,5]triazine-2-carboxamide] | > 2500 nM | > 2500 nM | < 5 nM | – |
| CC(C)c1cnn2c(NCc3ccccc3-n3ccnc3)nc(OC3CCN(C)CC3)nc12 [(VII-59), N-(2-(1H-imidazol-1-yl)benzyl)-8-isopropyl-2-((1-methylpiperidin-4-yl)oxy)pyrazolo[1,5-a][1,3,5]triazin-4-amine] | > 2500 nM | – | < 5 nM | Selectivity CDK7 over CDK9 ([1]; Table 6): 9140 fold; Selectivity CDK7 over CDK2 ([2]; Table 6): 3926 fold; IC50 ([3]; Table 6, read-out: IC50 CDK7): < 5 nM |
| CC(C)c1cnn2c(NCc3ccccc3C(F)(F)F)nc(OC3CCN(C)CC3)nc12 [VII-058, 8-isopropyl-2-((1-methylpiperidin-4-yl)oxy)-N-(2-(trifluoromethyl)benzyl)pyrazolo[1,5-a][1,3,5]triazin-4-amine] | > 2500 nM | > 2500 nM | – | – |
| CC(C)c1cnn2c(NCc3ccccc3-n3cccn3)nc(OC3CNC3)nc12 [VII-141, N-(2-(1H-pyrazol-1-yl)benzyl)-2-(azetidin-3-yloxy)-8-isopropylpyrazolo[1,5-a][1,3,5]triazin-4-amine] | > 2500 nM | 500 to 2500 nM | – | – |
| Cc1nccn1-c1ccccc1CNc1nc(O[C@@H]2CCNC2)nc2c(C(C)C)cnn12 [(VII-25), (R)-8-isopropyl-N-(2-(2-methyl-1H-imidazol-1-yl)benzyl)-2-(pyrrolidin-3-yloxy)pyrazolo[1,5-a][1,3,5]triazin-4-amine] | > 2500 nM | – | < 5 nM | – |
| Cc1nccn1-c1ccccc1CNc1nc(O[C@@H]2CCCNC2)nc2c(C(C)C)cnn12 [(VII-23), (R)-8-isopropyl-N-(2-(2-methyl-1H-imidazol-1-yl)benzyl)-2-(piperidin-3-yloxy)pyrazolo[1,5-a][1,3,5]triazin-4-amine] | – | 500 to 2500 nM | < 5 nM | – |
| CC(C)c1cnn2c(NCc3ccccc3-n3cccn3)nc(N3CCC4(CNC4)C3)nc12 [(VIII-07), N-(2-(1H-pyrazol-1-yl)benzyl)-8-isopropyl-2-(2,6-diazaspiro[3.4]octan-6-yl)pyrazolo[1,5-a][1,3,5]triazin-4-amine] | > 2500 nM | – | < 5 nM | – |
| Cc1ccccc1CNc1nc(OC2CCN(C)CC2)nc2c(C(C)C)cnn12 [(VII-53), 8-isopropyl-N-(2-methylbenzyl)-2-((1-methylpiperidin-4-yl)oxy)pyrazolo[1,5-a][1,3,5]triazin-4-amine] | 50 to 500 nM | – | 5 to 10 nM | – |
| CC(C)c1cnn2c(NCc3ccccc3-n3cncn3)nc(O[C@@H]3CCCNC3)nc12 [(VII-20), (R)-N-(2-(1H-1,2,4-triazol-1-yl)benzyl)-8-isopropyl-2-(piperidin-3-yloxy)pyrazolo[1,5-a][1,3,5]triazin-4-amine] | 500 to 2500 nM | – | < 5 nM | – |
| CC(C)c1cnn2c(NCc3ccccc3-c3cccnc3)nc(OC3CCN(C)CC3)nc12 [(VII-45), 8-isopropyl-2-((1-methylpiperidin-4-yl)oxy)-N-(2-(pyridin-3-yl)benzyl)pyrazolo[1,5-a][1,3,5]triazin-4-amine] | > 2500 nM | – | < 5 nM | – |
| CC(C)c1cnn2c(NCc3ccccc3N(C)C)nc(OC3CCN(C)CC3)nc12 [(VII-54), N-(2-(dimethylamino)benzyl)-8-isopropyl-2-((1-methylpiperidin-4-yl)oxy)pyrazolo[1,5-a][1,3,5]triazin-4-amine] | 50 to 500 nM | – | 5 to 10 nM | – |
| CC(C)c1cnn2c(NCc3ccccc3-n3cccn3)nc(N3CCC4(CCCCN4)C3)nc12 (centres unmarked) [(VIII-06), N-(2-(1H-pyrazol-1-yl)benzyl)-8-isopropyl-2-(2,6-diazaspiro[4.5]decan-2-yl)pyrazolo[1,5-a][1,3,5]triazin-4-amine] | > 2500 nM | – | < 5 nM | – |
| CC(C)c1cnn2c(NCc3ccccc3-n3cccn3)nc(N3CC4(CNC4)C3)nc12 [(VIII-10), N-(2-(1H-pyrazol-1-yl)benzyl)-8-isopropyl-2-(2,6-diazaspiro[3.3]heptan-2-yl)pyrazolo[1,5-a][1,3,5]triazin-4-amine] | > 2500 nM | – | 5 to 10 nM | – |
